Test results from the supplement of paper PMC11451515.

System: SEM cells
Assay: cell viability relative to DMSO control; higher = less cytotoxic
Conditions: 48 h
Procedure, shortened: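 Viability values are per-plate percentages of DMSO wells, with background from cell-free wells. Library compounds in DMSO were pin-dosed, in an 11-point threefold series from 47 μM to 0.79 nM, onto NOMO1 or SEM (500 cells/well) or P12-Ichikawa (1000 cells/well) leukemia cells in 1536-well plates (5 μl). Those cells had been adapted for at least four passages in each medium, and CellTiter-Glo One luminescence was read after 48 h at 37°C.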

[1] = HPLM + 10% dialyzed FBS, 0.000781 µM
[2] = HPLM + 10% dialyzed FBS, 0.00234 µM
[3] = HPLM + 10% dialyzed FBS, 0.00702 µM
[4] = HPLM + 10% dialyzed FBS, 0.0211 µM
[5] = HPLM + 10% dialyzed FBS, 0.0632 µM
[6] = HPLM + 10% dialyzed FBS, 0.19 µM
[7] = HPLM + 10% dialyzed FBS, 0.569 µM
[8] = HPLM + 10% dialyzed FBS, 1.71 µM
[9] = HPLM + 10% dialyzed FBS, 5.12 µM
[10] = HPLM + 10% dialyzed FBS, 15.4 µM
[11] = HPLM + 10% dialyzed FBS, 46.1 µM
[12] = RPMI 5 mM glucose + 10% FBS, 0.000781 µM
[13] = RPMI 5 mM glucose + 10% FBS, 0.00234 µM
[14] = RPMI 5 mM glucose + 10% FBS, 0.00702 µM
[15] = RPMI 5 mM glucose + 10% FBS, 0.0211 µM
[16] = RPMI 5 mM glucose + 10% FBS, 0.0632 µM
[17] = RPMI 5 mM glucose + 10% FBS, 0.19 µM
[18] = RPMI 5 mM glucose + 10% FBS, 0.569 µM
[19] = RPMI 5 mM glucose + 10% FBS, 1.71 µM
[20] = RPMI 5 mM glucose + 10% FBS, 5.12 µM
[21] = RPMI 5 mM glucose + 10% FBS, 15.4 µM
[22] = RPMI 5 mM glucose + 10% FBS, 46.1 µM
[23] = RPMI 5 mM glucose + 10% dialyzed FBS, 0.000781 µM
[24] = RPMI 5 mM glucose + 10% dialyzed FBS, 0.00234 µM
[25] = RPMI 5 mM glucose + 10% dialyzed FBS, 0.00702 µM
[26] = RPMI 5 mM glucose + 10% dialyzed FBS, 0.0211 µM
[27] = RPMI 5 mM glucose + 10% dialyzed FBS, 0.0632 µM
[28] = RPMI 5 mM glucose + 10% dialyzed FBS, 0.19 µM
[29] = RPMI 5 mM glucose + 10% dialyzed FBS, 0.569 µM
[30] = RPMI 5 mM glucose + 10% dialyzed FBS, 1.71 µM
[31] = RPMI 5 mM glucose + 10% dialyzed FBS, 5.12 µM
[32] = RPMI 5 mM glucose + 10% dialyzed FBS, 15.4 µM
[33] = RPMI 5 mM glucose + 10% dialyzed FBS, 46.1 µM

Work on `C[C@@H]1CCO[C@H]2CN\3/C=C(/C(=O)NCC4=C(F)C=C(F)C=C4)C(=O)\C(=C3C(=O)N12)O` yielded a cell viability [1] of 82.2%, a cell viability [2] of 104% and a cell viability [3] of 85%. The cell viability [4] was 104%, the cell viability [5] was 73.4% and the cell viability [6] was 91.6%. The cell viability [7] was 105%, the cell viability [8] was 103% and the cell viability [9] was 104%. It also gave a cell viability [10] of 91.5%, a cell viability [11] of 85.3% and a cell viability [12] of 100%. The cell viability [13] was 95.2%, the cell viability [14] was 99.6% and the cell viability [15] was 98.5%. The cell viability [16] was 44.4%, the cell viability [17] was 111% and the cell viability [18] was 104%. It also gave a cell viability [19] of 112%, a cell viability [20] of 107% and a cell viability [21] of 85.8%. For the same compound, the cell viability [22] was 88.1%, the cell viability [23] was 93.4% and the cell viability [24] was 98.7%. The cell viability [25] was 95.2%, the cell viability [26] was 96.3% and the cell viability [27] was 99.1%. The cell viability [28] was 100%, the cell viability [29] was 107% and the cell viability [30] was 99.3%. For the same compound, the cell viability [31] was 94.6%, the cell viability [32] was 96.7% and the cell viability [33] was 86.6%.
In the case of `COc1ccc(C(=O)CC2(O)C(=O)Nc3c(Cl)ccc(Cl)c32)cc1` (stereo not drawn), the cell viability [1] is reported as 87%, the cell viability [2] is reported as 108% and the cell viability [3] is reported as 111%. It also gave a cell viability [4] of 110%, a cell viability [5] of 104% and a cell viability [6] of 109%. It also gave a cell viability [7] of 113%, a cell viability [8] of 107% and a cell viability [9] of 45.9%. The cell viability [10] was 20.5%, the cell viability [11] was 16.2% and the cell viability [12] was 75.7%. For the same compound, the cell viability [13] was 98.4%, the cell viability [14] was 99.7% and the cell viability [15] was 79.3%. The cell viability [16] was 94.1%, the cell viability [17] was 85.1% and the cell viability [18] was 81.2%. For the same compound, the cell viability [19] was 65.7%, the cell viability [20] was 41.4% and the cell viability [21] was 10.7%. It also gave a cell viability [22] of 9.15%, a cell viability [23] of 94.8% and a cell viability [24] of 101%. It also gave a cell viability [25] of 107%, a cell viability [26] of 88.9% and a cell viability [27] of 104%. For the same compound, the cell viability [28] was 107%, the cell viability [29] was 107% and the cell viability [30] was 90.3%. It also gave a cell viability [31] of 47.3%, a cell viability [32] of 20.4% and a cell viability [33] of 14.9%.
In the case of `CC(C(=O)O)c1ccc2c(c1)CC(=O)c1ccccc1S2` (stereo not drawn), the cell viability [1] is reported as 99.9%, the cell viability [2] is reported as 117% and the cell viability [3] is reported as 109%. For the same compound, the cell viability [4] was 115%, the cell viability [5] was 94.3% and the cell viability [6] was 112%. The cell viability [7] was 95.4%, the cell viability [8] was 114% and the cell viability [9] was 126%. For the same compound, the cell viability [10] was 116%, the cell viability [11] was 115% and the cell viability [12] was 111%. It also gave a cell viability [13] of 109%, a cell viability [14] of 116% and a cell viability [15] of 104%. For the same compound, the cell viability [16] was 103%, the cell viability [17] was 105% and the cell viability [18] was 117%. For the same compound, the cell viability [19] was 121%, the cell viability [20] was 99.4% and the cell viability [21] was 107%. It also gave a cell viability [22] of 96.5%, a cell viability [23] of 122% and a cell viability [24] of 115%. For the same compound, the cell viability [25] was 129%, the cell viability [26] was 133% and the cell viability [27] was 124%. It also gave a cell viability [28] of 108%, a cell viability [29] of 116% and a cell viability [30] of 117%. For the same compound, the cell viability [31] was 110%, the cell viability [32] was 129% and the cell viability [33] was 118%.
`CNC(=O)c1ccc(Nc2cc(Nc3ccccc3[S+](=O)([O-])C(C)C)c3cc[nH]c3n2)nc1` was tested, and the cell viability [1] was 81.7%, the cell viability [2] was 76.4% and the cell viability [3] was 96.5%. The cell viability [4] was 90.7%, the cell viability [5] was 89.8% and the cell viability [6] was 98.3%. It also gave a cell viability [7] of 82.9%, a cell viability [8] of 38.2% and a cell viability [9] of 28.4%. The cell viability [10] was 24.3%, the cell viability [11] was 16.8% and the cell viability [12] was 93.5%. It also gave a cell viability [13] of 118%, a cell viability [14] of 106% and a cell viability [15] of 114%. For the same compound, the cell viability [16] was 104%, the cell viability [17] was 102% and the cell viability [18] was 101%. It also gave a cell viability [19] of 48.9%, a cell viability [20] of 20.8% and a cell viability [21] of 17.7%. It also gave a cell viability [22] of 6.52%, a cell viability [23] of 83.9% and a cell viability [24] of 99.4%. It also gave a cell viability [25] of 98.5%, a cell viability [26] of 94.7% and a cell viability [27] of 102%. For the same compound, the cell viability [28] was 97.6%, the cell viability [29] was 85% and the cell viability [30] was 27%. For the same compound, the cell viability [31] was 20.1%, the cell viability [32] was 17.4% and the cell viability [33] was 7.56%.
Work on `NC[C@H]1O[C@H](O[C@@H]2[C@H](O)[C@@H](O[C@H]3O[C@H](CO)[C@@H](O)[C@H](N)[C@H]3O)[C@H](N)C[C@@H]2N)[C@H](O)[C@@H](O)[C@@H]1O` yielded a cell viability [1] of 96.6%, a cell viability [2] of 93.3% and a cell viability [3] of 100%. For the same compound, the cell viability [4] was 24%, the cell viability [5] was 88.6% and the cell viability [6] was 105%. The cell viability [7] was 105%, the cell viability [8] was 96.8% and the cell viability [9] was 105%. The cell viability [10] was 90.1%, the cell viability [11] was 87.3% and the cell viability [23] was 115%. For the same compound, the cell viability [24] was 125%, the cell viability [25] was 124% and the cell viability [26] was 23%. It also gave a cell viability [27] of 113%, a cell viability [28] of 83.3% and a cell viability [29] of 107%. For the same compound, the cell viability [30] was 113%, the cell viability [31] was 105% and the cell viability [32] was 104%. For the same compound, the cell viability [33] was 92.4%.
Work on `COc1cc[nH]c2ncc(C(=O)C(=O)N3CCN(C(=O)c4ccccc4)C[C@H]3C)c1-2` yielded a cell viability [1] of 89.9%, a cell viability [2] of 87.6% and a cell viability [3] of 77.4%. It also gave a cell viability [4] of 90.1%, a cell viability [5] of 58.5% and a cell viability [6] of 82.6%. The cell viability [7] was 92%, the cell viability [8] was 96.8% and the cell viability [9] was 88.8%. For the same compound, the cell viability [10] was 94.2%, the cell viability [11] was 109% and the cell viability [12] was 115%. It also gave a cell viability [13] of 109%, a cell viability [14] of 112% and a cell viability [15] of 116%. It also gave a cell viability [16] of 74.2%, a cell viability [17] of 100% and a cell viability [18] of 100%. The cell viability [19] was 103%, the cell viability [20] was 113% and the cell viability [21] was 99.9%. For the same compound, the cell viability [22] was 96.9%, the cell viability [23] was 118% and the cell viability [24] was 109%. It also gave a cell viability [25] of 129%, a cell viability [26] of 115% and a cell viability [27] of 84.4%. It also gave a cell viability [28] of 102%, a cell viability [29] of 107% and a cell viability [30] of 101%. For the same compound, the cell viability [31] was 102%, the cell viability [32] was 103% and the cell viability [33] was 106%.
`Cc1cccc(Nc2ccncc2[S+](=O)([O-])NC(=O)NC(C)C)c1` gave a cell viability [1] of 80.2%, a cell viability [2] of 82.6% and a cell viability [3] of 88%. The cell viability [4] was 92.4%, the cell viability [5] was 85.7% and the cell viability [6] was 95.1%. It also gave a cell viability [7] of 98.6%, a cell viability [8] of 85.6% and a cell viability [9] of 75.5%. It also gave a cell viability [10] of 84.4%, a cell viability [11] of 72.3% and a cell viability [12] of 103%. It also gave a cell viability [13] of 94.6%, a cell viability [14] of 83.8% and a cell viability [15] of 102%. The cell viability [16] was 96.2%, the cell viability [17] was 97.9% and the cell viability [18] was 111%. The cell viability [19] was 87.7%, the cell viability [20] was 90.4% and the cell viability [21] was 95.3%. It also gave a cell viability [22] of 88.5%, a cell viability [23] of 89.7% and a cell viability [24] of 104%. The cell viability [25] was 110%, the cell viability [26] was 94.4% and the cell viability [27] was 106%. The cell viability [28] was 111%, the cell viability [29] was 101% and the cell viability [30] was 95.7%. It also gave a cell viability [31] of 83.8%, a cell viability [32] of 101% and a cell viability [33] of 84.5%.
`CC#CCn1c(N2CCC[C@@H](N)C2)nc2c1c(=O)n(Cc1nc(C)c3ccccc3n1)c(=O)n2C` gave a cell viability [1] of 107%, a cell viability [2] of 114% and a cell viability [3] of 115%. For the same compound, the cell viability [4] was 42.6%, the cell viability [5] was 115% and the cell viability [6] was 104%. It also gave a cell viability [7] of 112%, a cell viability [8] of 109% and a cell viability [9] of 111%. For the same compound, the cell viability [10] was 116%, the cell viability [11] was 83.3% and the cell viability [12] was 105%. It also gave a cell viability [13] of 97.9%, a cell viability [14] of 105% and a cell viability [15] of 40.3%. It also gave a cell viability [16] of 114%, a cell viability [17] of 102% and a cell viability [18] of 112%. The cell viability [19] was 108%, the cell viability [20] was 109% and the cell viability [21] was 102%. For the same compound, the cell viability [22] was 88.7%, the cell viability [23] was 96.8% and the cell viability [24] was 94.4%. For the same compound, the cell viability [25] was 88.7%, the cell viability [26] was 45.6% and the cell viability [27] was 108%. For the same compound, the cell viability [28] was 96%, the cell viability [29] was 108% and the cell viability [30] was 93.9%. The cell viability [31] was 93.5%, the cell viability [32] was 99.1% and the cell viability [33] was 75.2%.
